Source: US9788545B2, “Synergistic pesticidal compositions and related methods” (Dow AgroSciences LLC, priority 2013, dated 2017)

Legend:
Type in all cases: in vivo
[1] = system: South American brown stink bug, Euschistus heros; assay: Bean-piece dip bioassay on third-instar nymphs of South American brown stink bug (Example 6); conditions: Compound I alone, dose rate 0.04 weight %, treated bean pieces
Excerpt: (§1) The method described in Colby S. R., “Calculating Synergistic and Antagonistic Responses of Herbicide Combinations,” Weeds, 1967, 15, 20-22 was used to determine an existence of synergic effect between the sulfoximine-based nAChR agonist compound and the pesticide (I), (II) or any agriculturally acceptable salt thereof in the formulated pesticidal composition. In this method, the percent insect control of the formulated pesticidal composition as observed in the study was compared to the “expected” percent control (E) as calculated by equation (1) (hereinafter “Colby's equation”) below: […]
The active compounds were formulated in a 10% acetone solution with 0.025% non-ionic surfactant, TWEEN® 20. Bioassays were performed for each different active solution. Bean pieces (about one inch-long) were used for the tests. Four bean pieces were placed in each tested active solution and left there for 10 minutes. Bean pieces were taken out of the active solution, and each piece was placed in a well in a 32-well tray and allowed to air dry. Three third-instar nymphs of South American brown stink bug, Euschistus heros, were infested into each well.

[2] = system: Western flower thrips, Frankliniella occidentalis; assay: Cotton leaf punch dip bioassay on larval stage 2 nymphs of Western flower thrips (Examples 7A-7D); conditions: Compound I alone, dose rate 0.04 weight %, treated cotton leaf punches
Excerpt: as §1
The active compounds were formulated in a 10% acetone solution with 0.025% non-ionic surfactant, TWEEN® 20. Cotton leaf punches were used for bioassays. Two cotton leaf punches were placed in each solution and left there for 10 minutes. Leaves were taken out of the solution, placed on a piece of filter paper in separated Petri dishes, and air dried. Each leaf disc was considered a repetition. Five larval stage 2 nymphs of Western flower thrips, Frankliniella occidentalis, were infested per repetition.

[3] = system: brown stink bug, Euschistus heros; assay: Diet-treatment bioassay on second-instar nymphs of brown stink bug (Examples 5A, 5B); conditions: Compound II alone, dose rate 0.04 weight %, applied to diet
Excerpt: as §1
The percent control of the pesticidal composition against brown stink bug, Euschistus heros, was determined as the “Observed” action, and compared to those obtained by using about 0.04 weight % of Compound II, and using about 0.000156 weight % of sulfoxaflor alone. The “Colby's Expected Action” was calculated using Colby's equation as discussed previously.

Row | SMILES | % Control Four Days After Treatment [1] | % Control Three Days After Treatment [2] | % Control Six Days After Treatment [3]
1 | CCN(C(=O)CCSCCC(F)(F)F)c1cn(-c2cccnc2)nc1Cl [Compound I, N-(3-chloro-1-(pyridin-3-yl)-1H-pyrazol-4-yl)-N-ethyl-3-((3,3,3-trifluoropropyl)thio)propanamide] | 0% | 0% | 
2 | CCN(C(=O)CC[S+]([O-])CCC(F)(F)F)c1cn(-c2cccnc2)nc1Cl (stereo not drawn) [Compound II, N-(3-chloro-1-(pyridin-3-yl)-1H-pyrazol-4-yl)-N-ethyl-3-((3,3,3-trifluoropropyl)sulfinyl)propanamide] |  |  | no control
